The values that follow come from US20120252689A1, “GENE EXPRESSION SIGNATURE FOR WNT/B-CATENIN SIGNALING PATHWAY AND USE THEREOF” (priority 2011, published 2012).

Test [1] deals with active β-catenin. Nature of the test: Western blot of active β-catenin after LiCl treatment of 293H and CCD1079SK cells. It counts as cell-based, human. The note with it: 20 μM LiCl, 24 h in serum-free medium, FIG. 3B. On the procedure:
For positive regulation with LiCl treatment, 293H and CCD1079SKcells were plated in 6-well plate in a density of 2×10^5 cells/well/2 ml and cells were switched to serum-free medium 24 hours after plating. After 12 hours incubation in serum-free medium, cells were treated with or without 20 μM LiCl for 24 h in serum-free medium. At the end of treatment, cells were lysed in 200 μl of G6 lysis buffer and RNA was isolated with RT2 qPCR-Grade RNA Isolation Kit from SABiosciences according to manufacturer's protocol described in experimental protocol section. The protein extraction and western blot was carried out according to western blot protocol with mouse anti-active β-catenin antibody (1:1000). […] The RNA was isolated with RT2 qPCR-Grade RNA Isolation Kit from SABiosciences according to manufacturer's protocol described in experimental protocol section.
(§1) At the end of experimental treatment, cells were lysed in Modified RIPA buffer (150 mM NaCl, 50 mM TrisHCl, 1% IGEPAL, 0.5% sodium deoxycholate, 1 mM EDTA, 1% Triton X-100 and 0.1% SDS with protease and phosphatase inhibitor) (all chemicals from Sigma). […] After 15 minutes centrifuge at 15000 rpm at 4 degrees C., supernatant was transferred to a new 1.5 ml tube and protein concentration was measured with BCA protein assay according to manufacturer's standard protocol (Pierce). […]
On the technique in general: Immunoblotting shows a protein as a band on a membrane.

For test [2], the system named is Wnt/β-catenin target genes such as β-catenin (CTNNB1), MYC, CCND1 and AXIN2. The test is described as follows: Real-time RT-PCR of Wnt/β-catenin target genes after Wnt3a treatment of 293H cells. It counts as cell-based, human. The note with it: 400 ng/ml Wnt3a, 12 hours, compared to untreated samples, FIG. 2B. On the procedure:
(§2) The protocol that was used to identify the subject gene signature is depicted schematically in FIG. 1. As depicted therein, human embryonic kidney 293H cells were plated in 6-well plate in a density of 10′ cells per well in 2 ml growth medium. Plated cells were incubated in a cell culture incubator at 37 degrees C. with 5% CO2 supplied. Twenty four hours after plating, cells were transfected with siRNA specifically targeting β-catenin or non targeting siRNA as control. For each well, 6 μl of SureFECT transfection reagent (SABiosciences, a QIAGEN company) was diluted into 200 μl of OptiMEM medium (Invitrogen). The diluted transfection reagent was mixed with 20 nM −β catenin targeting siRNA duplex D ([…] (SEQ ID NO: 65)) (SABiosciences, a QIAGEN Company) or non-targeting siRNA ([…] (SEQ ID NO: 66)) (SABiosciences, a QIAGEN owned company) as control. After incubation at room temperature for 20 min, the transfection mixture was added into 293H cells in 6-well plate with 2 ml growth medium. […]
For RNA extraction, cells were lysed in 200 μl of G6 buffer (SABiosciences, a QIAGEN company) for each well. […] The concentration of RNA was measured with Nanodrop spectrophotometer (Thermo SCIENTIFIC) and the RNA was further processed for real-time RT PCR or microarray gene expression profiling analysis. […]

Test [3] deals with active β-catenin. Nature of the test: Western blot of active β-catenin after Wnt3a treatment of 293H cells. It counts as cell-based, human. The note with it: 400 ng/ml Wnt3a, 12 hour treatment in serum-free medium, compared to untreated samples, FIG. 2A. On the procedure: as §2, with “control.” for “control. After incubation at room temperature for 20 min, the transfection mixture was added into 293H cells in 6-well plate with 2 ml growth medium.”
as §1

The test system of test [4] is active β-catenin. The test is described as follows: Western blot of active β-catenin after Wnt3a treatment of ten different cell lines. It counts as cell-based. To be noted: 400 ng/ml Wnt3a, 12 h in serum-free medium, FIG. 3B. On the procedure:
To obtain ten positively regulated samples with Wnt3a treatment, ten different cell lines were plated in 6-well plates in a density of 2×10^5 cells/well/2 ml. After 24 h of plating, cells were switched to serum-free medium by removing normal culture medium, washing cells in PBS two times and replacing with 1 ml serum-free medium each well. After 12 hours in serum-free medium, cells were replaced with serum-free medium with or without 400 ng/ml Wnt3a in duplicate wells for an additional incubation of 12 h. At the end of 12 hours incubation, cells were either lysed in 50 μl modified RIPA buffer for protein lysate extraction or in 200 μl G6 lysis buffer for RNA isolation. The protein extraction and western blot was carried out according to western blot protocol with mouse anti-active β-catenin antibody (1:1000). […]
as §1

Regarding `[Cl-].[Li+]` [LiCl], in the test with active β-catenin [1], the “active β-catenin protein levels” value is “increased active β-catenin protein levels”.

In the case of Wnt3a, the “mRNA expression of Wnt/β-catenin target genes (CTNNB1, MYC, CCND1, AXIN2)” value in test [2] is “upregulation of Wnt/β-catenin target genes”. Besides, the “protein levels of active β-catenin” value in the test on active β-catenin [3] is recorded as “increased protein levels of active β-catenin”. Besides, the “active β-catenin protein levels” value in the test with active β-catenin [4] was “increased active β-catenin protein levels”.
